In patent US12005039B2, “Methods and compositions relating to lipokines for treating metabolic disorders” (Joslin Diabetes Center, Inc., priority 2018, dated 2024):

How the values were obtained:
skeletal muscle = test: In vivo bioluminescent fatty acid uptake in skeletal muscle (FFA-SS-Luc); conditions: ACTA1Cre+/- Rosa(stop)Luc+/- mice
Procedure: (§1) For experiments measuring in vivo bioluminescent fatty acid uptake in skeletal muscle, ACTA1cre^+/− mice (Stock no. 006139) were bred with Rosa(stop)Luc^+/+ (Stock no. 005125) (Jackson Laboratory). Experiments measuring skeletal muscle glucose uptake in isolated skeletal muscle glucose uptake were performed in 6 week old, female, CD-1 IGS mice (Charles River Laboratories).
For experiments measuring in vivo bioluminescent fatty acid uptake in skeletal muscle, ACTA1cre^+/− mice (Stock no. 006139) were bred with Rosa(stop)Luc^+/+ (Stock no. 005125)(Jackson Laboratory). Male offspring carrying the cre allele were injected retro-orbitally with 1 μg/kg body weight 12,13-diHOME in 0.1% BSA PBS or methyl acetate as a vehicle and all mice were co-injected with 2 μm FFA-SS-Luc (Intrace Medical). This dose is based on the circulating concentration of 12,13-diHOME in mice that are housed at room temperature, 3 ng/mL (10 nM). After an acute bout of exercise, 12,13-diHOME increased to 10-30 ng/mL (30-100 nM). This is considerably below the reported cytotoxic dose of 100 mg/kg body weight (Sisemore et al., 2001). Mice were anesthetized and imaged (IVIS Spectrum CT) using sequential 30 second exposures for 12 min.
A major source of energy for the working skeletal muscles during exercise comes from the uptake and oxidation of fatty acids. […]

[1] = Respiratory exchange ratio and energy expenditure by CLAMS in acutely treated mice; assay type: in vivo; conditions: wild-type mice, acute injection 1 μg/kg body weight i.v., CLAMS 4 h at room temperature, vs vehicle
Procedure: (§2) For measurements of respiratory exchange ratio (RER) and energy expenditure, mice were placed in metabolic chambers and injected intravenously with 1 μg/kg body weight 12,13-diHOME in 0.1% BSA PBS or vehicle and then monitored in the Comprehensive Laboratory Animals Monitoring System (CLAMS) at room temperature (22° C.) for 4 h.
A major source of energy for the working skeletal muscles during exercise comes from the uptake and oxidation of fatty acids. To determine whether 12,13-diHOME increases fatty acid uptake and oxidation in skeletal muscle in vivo, a mouse model. ACTA1Cre+/−Rosa(stop)Luc+/−mice, was generated that constitutively expressed a bioluminescent reporter in skeletal muscle. Mice were injected intravenously with FFA-SS-Luc, which is a fatty acid conjugated to luciferin (Henkin et al., 2012; Liao et al., 2005), in the presence of 12,13-diHOME or a vehicle control. […] These surprising in vivo data provided a potential physiological function for the exercise-induced increases in 12,13-diHOME.

[2] = RER by CLAMS in exercise-trained iBAT- mice treated with 12,13-diHOME; assay type: in vivo; conditions: iBAT- mice exercise trained 3 weeks, acutely treated with 12,13-diHOME
Procedure: For iBAT-mice, mice were anesthetized using isofluorane. iBAT was surgically removed and the artery immediately cauterized. Sham mice underwent the same surgical procedure, but iBAT was not removed.
as §2
Therefore, an analysis of sham and iBAT-mice was performed to determine whether increased 12,13-diHOME with training regulated fat utilization in vivo. Sham and iBAT-mice were sedentary or exercise trained for 3 weeks and subsequently, the RER was measured in metabolic cages. […] In contrast, there was no effect of exercise training on RER in the iBAT-mice.

[3] = test system: differentiated C2C12 cells; test: 14C-palmitic acid uptake and oxidation in C2C12 cells; assay type: cell-based; conditions: 1.5 μM, 15 min, vs vehicle
Procedure: (§3) Cells were housed at 37° C., 95% humidity and 5% CO2. C2C12 myoblasts (ATCC; passages 4-7) were maintained in DMEM containing 10% FBS and 1% penicillin/streptomycin. Differentiation was induced by incubating the cells in DMEM containing 2% horse serum and 1% penicillin/streptomycin for 4 days. 3T3-LI adipocytes (ATCC; passages 4-7) were maintained in DMEM containing 10% FBS and 1% penicillin/streptomycin. Differentiation was induced by incubating the cells in DMEM containing […] and 1% penicillin/streptomycin with 400 ng/mL dexamethasone, 1 μg/mL insulin, and 115 μg/mL IBMX for days 0-2, 1 μg/mL insulin for days 2-4, and DMEM with 10% FBS and 1% penicillin/streptomycin only days 4-8.
(§4) mRNA levels of were measured by quantitative RT-PCR using primers (Table 4). Fatty acid uptake and oxidation into differentiated C2C12 muscle cells and 3T3L1 adipocytes measured using ^14C-labeled palmitic acid uptake and conversion of ^14C-labeled palmitic acid into CO2 as previously described (Townsend et al., 2013). Cells were treated with 1.5 μM 12,13-diHOME or methyl acetate vehicle for 15 min, similar to previous studies (Lynes et al., 2017). Oxygen consumption rates (OCR) were measured in starved (1 hour) C2C12 skeletal muscle cells treated with 1.5 μM 12,13-diHOME or methyl acetate vehicle for 15 min and OCR measured in 200 μM palmitate (Seahorse XF24) (Vernochet et al., 2012). […]

3T3-L1 cells [4] = test: 14C-palmitic acid uptake and oxidation in 3T3-L1 cells; assay type: cell-based; conditions: 1.5 μM, 15 min, vs vehicle
Procedure: as §3, §4

C2C12 cells = test: Oxygen consumption rate (Seahorse XF24) in C2C12 cells; assay type: cell-based; conditions: 1.5 μM, 15 min, 200 μM palmitate, vs vehicle
Procedure: (§5) mRNA levels of were measured by quantitative RT-PCR using primers (Table 4). Fatty acid uptake and oxidation into differentiated C2C12 muscle cells and 3T3L1 adipocytes measured using ^14C-labeled palmitic acid uptake and conversion of ^14C-labeled palmitic acid into CO2 as previously described (Townsend et al., 2013). Cells were treated with 1.5 μM 12,13-diHOME or methyl acetate vehicle for 15 min, similar to previous studies (Lynes et al., 2017). Oxygen consumption rates (OCR) were measured in starved (1 hour) C2C12 skeletal muscle cells treated with 1.5 μM 12,13-diHOME or methyl acetate vehicle for 15 min and OCR measured in 200 μM palmitate (Seahorse XF24) (Vernochet et al., 2012).
To determine if 12,13-diHOME regulated mitochondrial function in muscle, differentiated C2C12 myotubes were incubated with 12,13-diHOME and then analyzed for mitochondrial respiration. 12,13-diHOME incubation increased basal oxygen consumption rate (OCR) and respiratory capacity in C2C12 cells (FIGS. 4A and 4B).

3T3-L1 cells [5] = test: Oxygen consumption rate in 3T3-L1 cells; assay type: cell-based; conditions: any condition (data not shown)
[6] = test system: mitochondrial and fatty acid oxidation genes; test: Expression of mitochondrial and fatty acid genes in tissues after acute injection (qRT-PCR); conditions: mice injected in vivo
Procedure: as §5
To identify a mechanism for increased fat utilization with 12,13-diHOME in skeletal muscle, assays were performed to determine the effects of injecting mice with 12,13-diHOME in vivo on the expression of mitochondrial and fatty acid oxidation genes in tibialis anterior muscle. […] However, there was no effect of 12,13-diHOME on mitochondrial or fatty acid oxidation genes in scWAT, pgWAT, liver, or BAT (FIGS. 6D-6G). These findings were consistent with the data showing that 12,13-diHOME regulates fatty acid metabolism in skeletal muscle.

[7] = test system: differentiated C2C12 myotubes; test: 3H-2-deoxyglucose uptake in C2C12 cells; assay type: cell-based; conditions: 1.5 mM, 15 min, vs vehicle
Procedure: 2-deoxyglucose uptake in C2C12 cells was measured as previously described (Nedachi and Kanzaki, 2006). Briefly, differentiated C2C12 myotubes were serum starved for 3 h in DMEM before any treatment. Cells were incubated with 12,13-diHOME ([…]; 15 min) or insulin (100 nM; 15 min). After stimulation, cells were washed with buffer containing 140 mM NaCl, 20 mM Hepes-Na (pH 7.4), 5 mM KCl, 2.5 mM MgSO4, and 1.0 mM CaCl2. Glucose transport was determined by the addition of ^3H-2-deoxyglucose for glucose for 10 min on ice. Cells were washed with ice-cold saline solution and harvested in 0.05 N NaOH to determine net accumulation of [^3H]-2-deoxyglucose (Nedachi and Kanzaki, 2006).
(§6) Glucose is an important fuel source utilized during exercise. Accordingly, assays were performed to determine whether 12,13-diHOME increased glucose uptake in skeletal muscle. […] To confirm these findings, isolated mouse soleus and extensor digitorum longus (EDL) skeletal muscles were incubated with either vehicle or 12,13-diHOME for 1 hour.

isolated mouse soleus = test: 3H-2-deoxyglucose uptake in isolated soleus muscle; conditions: 300 ng/mL, 1 hour, vs vehicle
Procedure: as §1
(§7) Isolated skeletal muscle glucose uptake was measured as previously described (Hayashi et al., 1998). Briefly, EDL or soleus muscles were dissected from 6 wk old female CD-1 mice, mounted, and incubated in Krebs-Ringer bicarbonate buffer (KRB) pH 7.4 containing 2 mM pyruvate for 60 min. Both EDL and soleus were incubated with vehicle or 300 ng/mL of 12,13-diHOME. Following treatment, glucose transport activity was measured for an additional 10 min.
as §6

[8] = test system: isolated mouse extensor digitorum longus (EDL); test: 3H-2-deoxyglucose uptake in isolated EDL muscle; conditions: 300 ng/mL, 1 hour, vs vehicle
Procedure: as §1, §7, §6

[9] = Sisemore et al., 2001; cited from earlier work

CCCCCC(O)C(O)C/C=C\CCCCCCCC(=O)O (stereo not drawn) [12,13-diHOME, 12,13-dihydroxy-9Z-octadecenoic acid]
fatty acid uptake in skeletal muscle (luciferase activity) (skeletal muscle; 1 μg/kg body weight injected with FFA-SS-Luc, vs vehicle): increased fatty acid uptake in skeletal muscle
time fatty acid uptake remained significantly elevated above vehicle (skeletal muscle; 1 μg/kg body weight, after injection): 10 min
energy expenditure [1]: independent of any change in energy expenditure
respiratory exchange ratio (RER) [1]: decreased
RER [2]: significantly decreased
fatty acid oxidation (14C palmitic acid to CO2) [3]: significant increase
fatty acid uptake (14C palmitic acid) [3]: significant increase
fatty acid oxidation (14C palmitic acid to CO2) (3T3-L1 cells [4]): did not increase
fatty acid uptake (14C palmitic acid) (3T3-L1 cells [4]): did not increase
ATP turnover (C2C12 cells): did not affect
basal oxygen consumption rate (OCR) (C2C12 cells): increased
maximal uncoupled respiration (C2C12 cells): did increase
respiratory capacity (C2C12 cells): increased
OCR (3T3-L1 cells [5]): did not increase OCR under any condition
expression of mitochondrial or fatty acid oxidation genes ([6]; BAT): no effect
expression of mitochondrial and fatty acid genes ([6]; heart): increased expression of Nrf1 and Nrf2
expression of mitochondrial or fatty acid oxidation genes ([6]; liver): no effect
expression of mitochondrial or fatty acid oxidation genes ([6]; pgWAT): no effect
expression of mitochondrial or fatty acid oxidation genes ([6]; scWAT): no effect
expression of mitochondrial and fatty acid genes ([6]; tibialis anterior muscle): increased expression of several genes involved in mitochondrial activity and biogenesis (citrate synthase, Nrf1, Nrf2), and fatty acid uptake (Cd36, Fatp4)
glucose uptake (3H-2DG) [7]: did not affect glucose uptake
rate of glucose uptake (3H-2DG) (isolated mouse soleus): no effect
rate of glucose uptake (3H-2DG) [8]: no effect
reported cytotoxic dose [9]: 100 mg/kg body weight
